The results in this text go back to publication PMC12396409, “Screening and hit evaluation of a microbial metabolite library against the pathogenic Plasmodium falciparum and Toxoplasma gondii parasites” (International Journal for Parasitology: Drugs and Drug …, 2025).

The structures appear in SMILES notation.

The test system of assay [1] is T. gondii RH strain (RH-Tub-eYFP) tachyzoites. The experiment in a line: microbe, parasite or virus in culture. The conditions noted are these: T. gondii, 72 h, parasite screen at 2 μg/mL, % growth; for Tg_72h_%Growth_Rep1: replicate 1; for Tg_72h_%Growth_Rep2: replicate 2. Type of assay: cell-based, Toxoplasma gondii.
Assay [2] has as its system P. falciparum 3D7 parasites. The experiment in a line: P. falciparum growth inhibition assay, 1-cycle (72 h treatment), SYBR DNA staining (library screen at 2 μg/mL and dose-response). Type of assay: cell-based, Plasmodium falciparum. The note with it: P. falciparum 3D7, 72 h, parasite screen at 2 μg/mL, % growth; for Pf_72h_%Growth_Rep1: replicate 1; for Pf_72h_%Growth_Rep2: replicate 2.

Assay [3] concerns P. falciparum 3D7 parasites. The assay can be described thus: P. falciparum growth inhibition assay, 2-cycle (120 h treatment), delayed-death screen and dose-response. Type of assay: cell-based, Plasmodium falciparum. The conditions noted are these: P. falciparum 3D7, 120 h, parasite screen at 2 μg/mL, % growth; for Pf_120h_%Growth_Rep1: replicate 1; for Pf_120h_%Growth_Rep2: replicate 2.

For `C[C@@H]1C[C@H]2CC[C@H](O2)[C@H](C)C(=O)O[C@@H](C)C[C@@H]2CC[C@@H](O2)[C@@H](C)C(=O)O[C@H](C)C[C@H]2CC[C@@H](O2)[C@H](C)C(=O)O[C@@H](C)C[C@@H]2CC[C@@H](O2)[C@@H](C)C(=O)O1` [BIA-N1270], in assay [1], the Tg_72h_%Growth_Rep1 is 4.95% and the Tg_72h_%Growth_Rep2 is reported as 0.97%. Further, in assay [2], the Pf_72h_%Growth_Rep1 amounted to 6.60% and the Pf_72h_%Growth_Rep2 amounted to 4.15%. For the same compound, in assay [3], the Pf_120h_%Growth_Rep1 worked out at 46.69% and the Pf_120h_%Growth_Rep2 stood at 11.45%.
Regarding `CO[C@@H]1[C@@H](OC(N)=O)[C@@H](O)[C@H](Oc2ccc3c(O)c(NC(=O)c4ccc(O)c(CC=C(C)C)c4)c(=O)oc3c2C)OC1(C)C` [BIA-N1306], in assay [1], the Tg_72h_%Growth_Rep1 was determined as 9.17% and the Tg_72h_%Growth_Rep2 amounted to 93.65%. For the same compound, in assay [2], the Pf_72h_%Growth_Rep1 amounted to 77.54% and the Pf_72h_%Growth_Rep2 is on record as 85.29%. In assay [3], this compound returned a Pf_120h_%Growth_Rep1 of 15.07% and a Pf_120h_%Growth_Rep2 of 13.28%.
Turning to `CC(C)Cc1cnc(C(O)C(C)C)c(=O)n1O` (stereo not drawn) [BIA-N1641], in assay [1], the Tg_72h_%Growth_Rep1 stood at 143.25% and the Tg_72h_%Growth_Rep2 is recorded as 85.15%. Further, in assay [2], the Pf_72h_%Growth_Rep1 turned out to be 83.86% and the Pf_72h_%Growth_Rep2 is 85.70%. In assay [3], this compound had a Pf_120h_%Growth_Rep1 of 89.64% and a Pf_120h_%Growth_Rep2 of 132.16%.
For the compound `O=C(O)CC[N+](=O)[O-]` [BIA-N1694], in assay [1], the Tg_72h_%Growth_Rep1 came to 133.03% and the Tg_72h_%Growth_Rep2 worked out at 105.32%. Moreover, in assay [2], the Pf_72h_%Growth_Rep1 turned out to be 75.60% and the Pf_72h_%Growth_Rep2 was 92.27%. In assay [3], this compound came in with a Pf_120h_%Growth_Rep1 of 78.14% and a Pf_120h_%Growth_Rep2 of 7.96%.
In the case of `CC1=C[C@H]2O[C@@H]3[C@H](O)[C@@H](O)[C@](C)([C@@]2(CO)[C@H](O)C1=O)[C@]31CO1` [BIA-N1920], in assay [1], the Tg_72h_%Growth_Rep1 is 0.21% and the Tg_72h_%Growth_Rep2 was 0.91%. Further, in assay [2], the Pf_72h_%Growth_Rep1 was determined as 4.51% and the Pf_72h_%Growth_Rep2 is recorded as -2.70%. Also, in assay [3], the Pf_120h_%Growth_Rep1 is on record as 18.13% and the Pf_120h_%Growth_Rep2 is 5.74%.
For the compound `CC(=O)OCC12CC(O)C(C)=CC1OC1C(O)C(OC(C)=O)C2(C)C12CO2` (stereo not drawn) [BIA-N1931], in assay [1], the Tg_72h_%Growth_Rep1 is recorded as 0.58% and the Tg_72h_%Growth_Rep2 is on record as -0.09%. Moreover, in assay [2], the Pf_72h_%Growth_Rep1 came out at 6.76% and the Pf_72h_%Growth_Rep2 was -0.85%. In assay [3], this compound showed a Pf_120h_%Growth_Rep1 of 9.98% and a Pf_120h_%Growth_Rep2 of 3.84%.
In the case of `COc1ccc2c(c1OC)C(=O)O[C@@H]2[C@H]1c2c(cc3c(c2OC)OCO3)CCN1C` [BIA-N1938], in assay [1], the Tg_72h_%Growth_Rep1 is given as 85.42% and the Tg_72h_%Growth_Rep2 is recorded as 102.99%. For the same compound, in assay [2], the Pf_72h_%Growth_Rep1 is on record as 84.86% and the Pf_72h_%Growth_Rep2 stood at 78.38%. In assay [3], this compound gave a Pf_120h_%Growth_Rep1 of 166.83% and a Pf_120h_%Growth_Rep2 of 79.12%.
`Cn1c2ccccc2c(=O)c2c(O)cc3c(c21)C=CC(C)(C)O3` [BIA-N1949]: in assay [1], the Tg_72h_%Growth_Rep1 came to 111.30% and the Tg_72h_%Growth_Rep2 amounted to 95.22%. In addition, in assay [2], the Pf_72h_%Growth_Rep1 was 90.51% and the Pf_72h_%Growth_Rep2 is reported as 117.30%. In assay [3], this compound came in with a Pf_120h_%Growth_Rep1 of 85.11% and a Pf_120h_%Growth_Rep2 of 95.19%.
As for `CC(C)=CC1CC(C)C2(CCC3(C)CC4C(C(=O)CC4(C)O)C(C=O)=CCC32)O1` (stereo not drawn) [BIA-O1063], in assay [1], the Tg_72h_%Growth_Rep1 is recorded as 5.87% and the Tg_72h_%Growth_Rep2 was 0.78%. In addition, in assay [2], the Pf_72h_%Growth_Rep1 was found to be 4.64% and the Pf_72h_%Growth_Rep2 stood at 5.89%. Besides, in assay [3], the Pf_120h_%Growth_Rep1 is 10.48% and the Pf_120h_%Growth_Rep2 amounted to 11.00%.
